Patent US10070651B2, “Synthesis and characterization of antimicrobial non-color forming silver-silica nanocomposite” (UNIVERSITY OF CENTRAL FLORIDA RESEARCH FOUNDATION, INC., priority 2015, dated 2018)

Experiments:
bacteria = experiment: Antimicrobial efficacy / bacterial viability assay, summary statements without named organism; format: cell-based; conditions: equivalent concentrations of silver
Method: Such an enhanced antimicrobial efficacy, for instance, may be attributed to a sustained release of silver, for example, either as a nanoparticle and/or its ionic form. By way of example, antimicrobial efficacy of the silica-silver nanocomposite particle was evaluated relative to that of the silver nanoparticle (AgNP) lacking the dielectric material encapsulation and aqueous silver nitrate (AgNO3) solutions, respectively, at equivalent concentrations of silver (if present). Note that, the silver nanoparticle and the silver nitrate, in this example, have been used as a positive growth control, while the silica nanoparticle (SiNP) lacking silver components, has been used as a negative growth control.
In order to gain a better understanding of the antimicrobial efficacy of each material, we carried out a colony forming unit study over two time points, 1 and 4 hours. 96 well plates were prepared and incubated as described for M IC studies, and 10 μL samples from wells containing the concentrations of antimicrobial agents were taken at each time point. […] MH2 agar plates labeled by material and time point were then spotted with five 10 μL drops from each well at each concentration, allowed to dry in the sterile conditions of a biosafety cabinet, and then incubated 12-14 hours before colonies were counted. […]

[1] = Color passivation study on coated tiles (thermal and UV treatments); format: physicochemical
Method: White tiles were purchased from Home Depot, and scrubbed with acetone and Kim wipes to remove any oils which would inhibit materials from adhering well. After scrubbing and allowing the tiles to dry, about 50 μL samples of each material were spread over an area approximately 3cm by 3cm, and allowed to dry under ambient conditions. A picture was taken, and then tiles were exposed to long and shortwave UV radiation for 5 minutes, and briefly heated using a butane torch, and photographed again to observe the change in color of each material.

Q: For O=[N+]([O-])[O-].[Ag+] [AgNO3, silver nitrate], which “antimicrobial efficacy, relative ranking” value (bacteria) is on record?
A: most effective antimicrobial form of silver

Q: What about the “color of coated tile after thermal and UV treatments” value ([1]; UV radiation for 5 minutes and brief heating with butane torch) of the same compound?
A: dark brown/black color

Q: And the “color of coated tile before thermal and UV treatments” value ([1]; white tiles, dried coating)?
A: do not show formation of color
